In patent publication US10407422B2, “Triazolopyridine inhibitors of myeloperoxidase” (priority 2015, dated 2019) one finds IC50 data, which are given here for 28 compounds.

For experiment [1], the target named is T1, myeloperoxidase (MPO) (Homo sapiens (Human), UniProt P05164). As to the kind of experiment: MPO peroxidation assay (Amplex Red assay). The class given is biochemical. The settings on record: potency range class. A digest of the protocol:
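Human MPO at 200 pM with 40 nM H2O2 preincubated 10 min at room temperature with inhibitor in 100 mM KPi pH 7.4. Reaction started with Amplex Red mixture (200 μM Amplex Red, 10 mM H2O2); resorufin fluorescence (Ex 535, Em 590 nm) read kinetically for 15 min. IC50 fitted from slopes over 180-540 s.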

Experiment [2] concerns the target T1, myeloperoxidase (MPO). The experiment can be described thus: MPO chlorination assay (APF assay). The class given is biochemical. The conditions noted are these: potency range class. The essentials: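 Human MPO (200 pM) preincubated 10 min at room temperature with inhibitor and 120 mM NaCl in 100 mM KPi pH 7.4. Reaction started with APF plus 10 μM H2O2, and hypochlorite-generated fluorescein read kinetically (ex 485/em 535 nm) for 3 min. IC50 from linear-phase slopes fitted to a four-parameter equation.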

Molecules are shown by their SMILES.

T1 sequence (P05164 49-745): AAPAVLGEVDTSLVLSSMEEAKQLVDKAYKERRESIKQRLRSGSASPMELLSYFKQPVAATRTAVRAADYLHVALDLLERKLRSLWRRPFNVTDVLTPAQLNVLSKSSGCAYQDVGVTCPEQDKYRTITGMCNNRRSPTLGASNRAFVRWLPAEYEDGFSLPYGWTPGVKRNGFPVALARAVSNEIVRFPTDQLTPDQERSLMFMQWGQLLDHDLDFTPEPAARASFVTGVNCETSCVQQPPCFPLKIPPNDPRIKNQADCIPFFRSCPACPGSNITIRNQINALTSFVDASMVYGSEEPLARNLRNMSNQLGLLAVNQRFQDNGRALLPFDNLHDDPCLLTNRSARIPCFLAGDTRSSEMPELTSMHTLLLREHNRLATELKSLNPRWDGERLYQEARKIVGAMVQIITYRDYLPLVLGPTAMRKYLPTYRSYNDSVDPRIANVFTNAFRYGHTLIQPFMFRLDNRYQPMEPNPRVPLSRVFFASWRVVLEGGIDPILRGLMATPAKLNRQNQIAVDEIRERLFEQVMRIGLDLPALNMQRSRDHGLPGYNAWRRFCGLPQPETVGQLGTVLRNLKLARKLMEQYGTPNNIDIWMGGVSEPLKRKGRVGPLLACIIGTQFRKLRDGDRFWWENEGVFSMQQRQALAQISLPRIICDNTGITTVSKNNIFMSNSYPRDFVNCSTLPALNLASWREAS

A word on the IC50: it is the concentration needed to halve the response being measured. A high value points to a need for much substance. In the case of `Nc1cc(Cc2cnn(Cc3ccccc3Cl)c2)c2nn[nH]c2n1` [Example 57, 7-((1-(2-Chlorobenzyl)-1H-pyrazol-4-yl)methyl)-3H-[1,2,3]triazolo[4,5-b]pyridin-5-amine], the IC50 in experiment [1] and in experiment [2] was 1 to 100 nM each time.

Regarding `Cc1nc(-c2cccc(Cn3cc(Cc4cc(N)nc5[nH]nnc45)cn3)c2)no1` [Example 59, 7-((1-(3-(5-Methyl-1,2,4-oxadiazol-3-yl)benzyl)-1H-pyrazol-4-yl)methyl)-3H-[1,2,3]triazolo[4,5-b]pyridin-5-amine], the values for the IC50 in experiment [1] and in experiment [2] were 1 to 100 nM and 101 to 999 nM, respectively.

As for `Nc1cc(Cc2cnn(Cc3cccc(OC(F)(F)F)c3)c2)c2nn[nH]c2n1` [Example 60, 7-((1-(3-(Trifluoromethoxy)benzyl)-1H-pyrazol-4-yl)methyl)-3H-[1,2,3]triazolo[4,5-b]pyridin-5-amine], the IC50 in experiment [1] and in experiment [2] was 1 to 100 nM in each case.

Turning to `Nc1cc(Cc2cnn(Cc3cccc(OC(F)F)c3)c2)c2nn[nH]c2n1` [Example 61, 7-((1-(3-(Difluoromethoxy)benzyl)-1H-pyrazol-4-yl)methyl)-3H-[1,2,3]triazolo[4,5-b]pyridin-5-amine], the IC50 in experiment [1] and in experiment [2] was 1 to 100 nM each time.

Consider `Nc1cc(Cc2cnn(Cc3cccc(C(F)(F)F)c3)c2)c2nn[nH]c2n1` [Example 62, 7-((1-(3-(Trifluoromethyl)benzyl)-1H-pyrazol-4-yl)methyl)-3H-[1,2,3]triazolo[4,5-b]pyridin-5-amine], for which the results for the IC50 in experiment [1] and in experiment [2] were 1 to 100 nM and 101 to 999 nM, respectively.

As to `Nc1cc(Cc2cnn(Cc3ccc(CO)cc3)c2)c2nn[nH]c2n1` [Example 64, (4-((4-((5-Amino-3H-[1,2,3]triazolo[4,5-b]pyridin-7-yl)methyl)-1H-pyrazol-1-yl)methyl)phenyl)methanol], the IC50 in experiment [1] fell in the range of 1 to 100 nM; in experiment [2], 101 to 999 nM.

Take `Nc1cc(Cc2cnn(CC3CCN(C(=O)OCc4ccccc4)CC3)c2)c2nn[nH]c2n1` [Example 65, Benzyl 4-((4-((5-amino-3H-[1,2,3]triazolo[4,5-b]pyridin-7-yl)methyl)-1H-pyrazol-1-yl)methyl)piperidine-1-carboxylate]: the IC50 in experiment [1] and in experiment [2] was 101 to 999 nM throughout.

In the case of `Nc1cc(Cc2cnn(C3CCNC3)c2)c2nn[nH]c2n1` (centres unmarked) [Example 66, 7-((1-(Pyrrolidin-3-yl)-1H-pyrazol-4-yl)methyl)-3H-[1,2,3]triazolo[4,5-b]pyridin-5-amine], the IC50 in experiment [1] and in experiment [2] was 101 to 999 nM each time.

Turning to `Nc1cc(Cc2cnn(Cc3cccc(Cc4ccccc4)c3)c2)c2nn[nH]c2n1` [Example 67, 7-((1-(3-Benzylbenzyl)-1H-pyrazol-4-yl)methyl)-3H-[1,2,3]triazolo[4,5-b]pyridin-5-amine], the IC50 in experiment [1] and in experiment [2] was 1 to 100 nM throughout.

Regarding `Nc1cc(Cc2cnn(Cc3ccc4cc(O)ccc4c3)c2)c2nn[nH]c2n1` [Example 68, 6-((4-((5-Amino-3H-[1,2,3]triazolo[4,5-b]pyridin-7-yl)methyl)-1H-pyrazol-1-yl)methyl)naphthalen-2-ol], the IC50 lay within 1 to 100 nM in experiment [1] and 101 to 999 nM in experiment [2].

In the case of `CN(C)CCOc1ccc2cc(Cn3cc(Cc4cc(N)nc5[nH]nnc45)cn3)ccc2c1` [Example 69, 7-((1-((6-(2-(Dimethylamino)ethoxy)naphthalen-2-yl)methyl)-1H-pyrazol-4-yl)methyl)-3H-[1,2,3]triazolo[4,5-b]pyridin-5-amine], the IC50 in experiment [1] is 101 to 999 nM; in experiment [2], 1 to 100 nM.

For the compound `Cc1cc(Cc2cc(N)nc3[nH]nnc23)no1` [Example 71, 7-[(5-Methyl-1,2-oxazol-3-yl)methyl]-3H-[1,2,3]triazolo[4,5-b]pyridin-5-amine], the IC50 in experiment [1] and in experiment [2] was 101 to 999 nM each time.

Regarding `CN(C)CCNC(=O)c1ccc(Cn2cc(Cc3cc(N)nc4[nH]nnc34)cn2)cc1` [Example 72, 4-((4-((5-Amino-3H-[1,2,3]triazolo[4,5-b]pyridin-7-yl)methyl)-1H-pyrazol-1-yl)methyl)-N-(2-(dimethylamino)ethyl)benzamide], the figures for the IC50 in experiment [1] and in experiment [2] were 1 to 100 nM and 101 to 999 nM, respectively.

As to `Nc1cc(Cc2cnn(Cc3ccc(C(=O)NCc4ncc[nH]4)cc3)c2)c2nn[nH]c2n1` [Example 74, N-((1H-Imidazol-2-yl)methyl)-4-((4-((5-amino-3H-[1,2,3]triazolo[4,5-b]pyridin-7-yl)methyl)-H-pyrazol-1-yl)methyl)benzamide], the results for the IC50 in experiment [1] and in experiment [2] were 1 to 100 nM and 101 to 999 nM, respectively.

With `Nc1cc(Cc2cnn(Cc3ccc(C(=O)NCCN4CCOCC4)cc3)c2)c2nn[nH]c2n1` [Example 75, 4-{[4-({5-Amino-3H-[1,2,3]triazolo[4,5-b]pyridin-7-yl}methyl)-1H-pyrazol-1-yl]methyl}-N-[2-(morpholin-4-yl)ethyl]benzamide], the IC50 in experiment [1] and in experiment [2] was 101 to 999 nM each time.

Consider `Nc1cc(Cc2cnn(Cc3ccc(C(=O)NCCO)cc3)c2)c2nn[nH]c2n1` [Example 76, 4-{[4-({5-Amino-3H-[1,2,3]triazolo[4,5-b]pyridin-7-yl}methyl)-1H-pyrazol-1-yl]methyl}-N-(2-hydroxyethyl)benzamide], for which the IC50 in experiment [1] fell in the range of 1 to 100 nM; in experiment [2] it was 101 to 999 nM.

Take `CN(C)CCN(C)C(=O)c1ccc(Cn2cc(Cc3cc(N)nc4[nH]nnc34)cn2)cc1` [Example 77, 4-{[4-({5-Amino-3H-[1,2,3]triazolo[4,5-b]pyridin-7-yl}methyl)-1H-pyrazol-1-yl]methyl}-N-[2-(dimethylamino)ethyl]-N-methylbenzamide]: the IC50 fell in the range of 1 to 100 nM in experiment [1] and 101 to 999 nM in experiment [2].

On to `Nc1cc(Cc2cnn(Cc3ccc(C(=O)NCc4ccn[nH]4)cc3)c2)c2nn[nH]c2n1` [Example 78, 4-{[4-({5-Amino-3H-[1,2,3]triazolo[4,5-b]pyridin-7-yl}methyl)-1H-pyrazol-1-yl]methyl}-N-(1H-pyrazol-5-ylmethyl)benzamide], for which the IC50 in experiment [1] lay in the range of 1 to 100 nM; in experiment [2], 101 to 999 nM.

Regarding `Nc1cc(Cc2cnn(Cc3ccc(C(=O)NCc4cn[nH]c4)cc3)c2)c2nn[nH]c2n1` [Example 79, 4-{[4-({5-Amino-3H-[1,2,3]triazolo[4,5-b]pyridin-7-yl}methyl)-1H-pyrazol-1-yl]methyl}-N-(1H-pyrazol-4-ylmethyl)benzamide], the results for the IC50 in experiment [1] and in experiment [2] were 1 to 100 nM and 101 to 999 nM, respectively.

`Nc1cc(Cc2cnn(Cc3ccc(C(=O)NCc4ccccn4)cc3)c2)c2nn[nH]c2n1` [Example 80, 4-{[4-({5-Amino-3H-[1,2,3]triazolo[4,5-b]pyridin-7-yl}methyl)-1H-pyrazol-1-yl]methyl}-N-(pyridin-2-ylmethyl)benzamide]: the IC50 in experiment [1] was 1 to 100 nM; in experiment [2], 101 to 999 nM.

For `Nc1cc(Cc2cnn(Cc3ccc(C(=O)NCc4ncn[nH]4)cc3)c2)c2nn[nH]c2n1` [Example 81, 4-{[4-({5-Amino-3H-[1,2,3]triazolo[4,5-b]pyridin-7-yl}methyl)-1H-pyrazol-1-yl]methyl}-N-(1H-1,2,4-triazol-5-ylmethyl)benzamide], the IC50 in experiment [1] was 1 to 100 nM; in experiment [2] it was 101 to 999 nM.

On to `CN(Cc1ncc[nH]1)C(=O)c1ccc(Cn2cc(Cc3cc(N)nc4[nH]nnc34)cn2)cc1` [Example 82, 4-{[4-({5-Amino-3H-[1,2,3]triazolo[4,5-b]pyridin-7-yl}methyl)-1H-pyrazol-1-yl]methyl}-N-(1H-imidazol-2-ylmethyl)-N-methylbenzamide], for which the results for the IC50 in experiment [1] and in experiment [2] were 1 to 100 nM and 101 to 999 nM, respectively.

Consider `Nc1cc(Cc2cnn(Cc3ccc(C(=O)NCCc4cnc[nH]4)cc3)c2)c2nn[nH]c2n1` [Example 83, 4-{[4-({5-Amino-3H-[1,2,3]triazolo[4,5-b]pyridin-7-yl}methyl)-1H-pyrazol-1-yl]methyl}-N-[2-(1H-imidazol-4-yl)ethyl]benzamide], for which the IC50 in experiment [1] was in the range of 1 to 100 nM; in experiment [2], 101 to 999 nM.

In the case of `Nc1cc(Cc2cnn(Cc3ccc(C(=O)N4CCC(O)C4)cc3)c2)c2nn[nH]c2n1` (centres unmarked) [Example 84, 1-(4-{[4-({5-Amino-3H-[1,2,3]triazolo[4,5-b]pyridin-7-yl}methyl)-1H-pyrazol-1-yl]methyl}benzoyl)pyrrolidin-3-ol], the IC50 in experiment [1] and in experiment [2] was 101 to 999 nM throughout.

On to `CN1CCN(C(=O)c2ccc(Cn3cc(Cc4cc(N)nc5[nH]nnc45)cn3)cc2)CC1` [Example 85, 7-[(1-{[4-(4-Methylpiperazine-1-carbonyl)phenyl]methyl}-1H-pyrazol-4-yl)methyl]-3H-[1,2,3]triazolo[4,5-b]pyridin-5-amine], for which the IC50 in experiment [1] lay within 1 to 100 nM; in experiment [2], 101 to 999 nM.

Turning to `Nc1cc(Cc2cnn(Cc3ccc(C(=O)NCc4ccncc4)cc3)c2)c2nn[nH]c2n1` [Example 86, 4-{[4-({5-Amino-3H-[1,2,3]triazolo[4,5-b]pyridin-7-yl}methyl)-1H-pyrazol-1-yl]methyl}-N-(pyridin-4-ylmethyl)benzamide], the IC50 is 1 to 100 nM in experiment [1] and 101 to 999 nM in experiment [2].

Regarding `CC(CO)NC(=O)c1ccc(Cn2cc(Cc3cc(N)nc4[nH]nnc34)cn2)cc1` (centres unmarked) [Example 87, 4-{[4-({5-Amino-3H-[1,2,3]triazolo[4,5-b]pyridin-7-yl}methyl)-1H-pyrazol-1-yl]methyl}-N-(1-hydroxypropan-2-yl)benzamide], the results for the IC50 in experiment [1] and in experiment [2] were 1 to 100 nM and 101 to 999 nM, respectively.

Take `CCCNC(=O)c1ccc(Cn2cc(Cc3cc(N)nc4[nH]nnc34)cn2)cc1` [Example 88, 4-{[4-({5-Amino-3H-[1,2,3]triazolo[4,5-b]pyridin-7-yl}methyl)-1H-pyrazol-1-yl]methyl}-N-propylbenzamide]: the values for the IC50 in experiment [1] and in experiment [2] were 1 to 100 nM and 101 to 999 nM, respectively.
